# From PubChem BioAssay AID2060624 (Molecular Pharmacology Branch, DTP, NCI, 2025)
# Tested on: 217524-143-R1-J4-PDC spheroids with HUVEC/MSC, viability
# Test: Anticancer human tumor 217524-143-R1-J4-PDC patient-derived pancreatic carcinoma cell line growth inhibition [CLK]
# Details: for IC50: curve of first compound; for viability, T/C: stronger effect = lower value
# In short: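 Patient-derived tumor cells grown as complex spheroids with HUVEC endothelial cells and mesenchymal stem cells, treated with drug combinations. Concentrations descend in half-log steps from near clinical Cmax, or from 10 microM if Cmax unknown.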
# [1] = second compound 0.0316 µM, first compound 0.0316 µM
# [2] = second compound 0.0316 µM, first compound 0.1 µM
# [3] = second compound 0.0316 µM, first compound 0.316 µM
# [4] = second compound 0.0316 µM, first compound 1 µM
# [5] = second compound 0.0316 µM, first compound 3.16 µM
# [6] = second compound 0.0316 µM, first compound 10 µM
# [7] = second compound 0.1 µM, first compound 0.0316 µM
# [8] = second compound 0.1 µM, first compound 0.1 µM
# [9] = second compound 0.1 µM, first compound 0.316 µM
# [10] = second compound 0.1 µM, first compound 1 µM
# [11] = second compound 0.1 µM, first compound 3.16 µM
# [12] = second compound 0.1 µM, first compound 10 µM
# [13] = second compound 0.316 µM, first compound 0.0316 µM
# [14] = second compound 0.316 µM, first compound 0.1 µM
# [15] = second compound 0.316 µM, first compound 0.316 µM
# [16] = second compound 0.316 µM, first compound 1 µM
# [17] = second compound 0.316 µM, first compound 3.16 µM
# [18] = second compound 0.316 µM, first compound 10 µM
# [19] = second compound 1 µM, first compound 0.0316 µM
# [20] = second compound 1 µM, first compound 0.1 µM
# [21] = second compound 1 µM, first compound 0.316 µM
# [22] = second compound 1 µM, first compound 1 µM
# [23] = second compound 1 µM, first compound 3.16 µM
# [24] = second compound 1 µM, first compound 10 µM
# [25] = second compound 3.16 µM, first compound 0.0316 µM
# [26] = second compound 3.16 µM, first compound 0.1 µM
# [27] = second compound 3.16 µM, first compound 0.316 µM
# [28] = second compound 3.16 µM, first compound 1 µM
# [29] = second compound 3.16 µM, first compound 3.16 µM
# [30] = second compound 3.16 µM, first compound 10 µM
# [31] = second compound 10 µM, first compound 0.0316 µM
# [32] = second compound 10 µM, first compound 0.1 µM
# [33] = second compound 10 µM, first compound 0.316 µM
# [34] = second compound 10 µM, first compound 1 µM
# [35] = second compound 10 µM, first compound 3.16 µM
# [36] = second compound 10 µM, first compound 10 µM
# 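Note: spheroids exposed to agents for seven days before reading.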
# 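Throughout, for viability, T/C: 100% = DMSO vehicle control viability.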
smiles,measurement,setting,value
Nc1ccn(C2OC(CO)C(O)C2(F)F)c(=O)n1 (centres undefined) + CN1CCN(c2cc(C(=O)Nc3cc4cc(-c5cnn(C)c5)ccc4cn3)ccn2)CC1,IC50,second compound 0.0316 µM,0.0432 µM
same,IC50,second compound 0.1 µM,< 0.0316 µM
same,IC50,second compound 0.316 µM,< 0.0316 µM
same,IC50,second compound 1 µM,< 0.0316 µM
same,IC50,second compound 3.16 µM,< 0.0316 µM
same,IC50,second compound 10 µM,< 0.0316 µM
same,"viability, T/C",[1],60.1%
same,"viability, T/C",[2],22.9%
same,"viability, T/C",[3],20.5%
same,"viability, T/C",[4],19.9%
same,"viability, T/C",[5],24.1%
same,"viability, T/C",[6],22.6%
same,"viability, T/C",[7],36%
same,"viability, T/C",[8],22.9%
same,"viability, T/C",[9],16.1%
same,"viability, T/C",[10],16.9%
same,"viability, T/C",[11],18.9%
same,"viability, T/C",[12],17.9%
same,"viability, T/C",[13],15.4%
same,"viability, T/C",[14],10.9%
same,"viability, T/C",[15],11.6%
same,"viability, T/C",[16],9.15%
same,"viability, T/C",[17],13.3%
same,"viability, T/C",[18],10.8%
same,"viability, T/C",[19],1.8%
same,"viability, T/C",[20],1.09%
same,"viability, T/C",[21],1.22%
same,"viability, T/C",[22],1.31%
same,"viability, T/C",[23],1.04%
same,"viability, T/C",[24],1.02%
same,"viability, T/C",[25],0.72%
same,"viability, T/C",[26],0.59%
same,"viability, T/C",[27],0.75%
same,"viability, T/C",[28],0.76%
same,"viability, T/C",[29],0.87%
same,"viability, T/C",[30],0.72%
same,"viability, T/C",[31],0.2%
same,"viability, T/C",[32],0.2%
same,"viability, T/C",[33],0.21%
same,"viability, T/C",[34],0.25%
same,"viability, T/C",[35],0.24%
same,"viability, T/C",[36],0.22%
O=c1[nH]cc(F)c(=O)[nH]1 + CN1CCN(c2cc(C(=O)Nc3cc4cc(-c5cnn(C)c5)ccc4cn3)ccn2)CC1,IC50,second compound 0.0316 µM,0.505 µM
same,IC50,second compound 0.1 µM,0.196 µM
same,IC50,second compound 0.316 µM,< 0.0316 µM
same,IC50,second compound 1 µM,< 0.0316 µM
same,IC50,second compound 3.16 µM,< 0.0316 µM
same,IC50,second compound 10 µM,< 0.0316 µM
same,"viability, T/C",[1],78.1%
same,"viability, T/C",[2],74.9%
same,"viability, T/C",[3],46.5%
same,"viability, T/C",[4],49.6%
same,"viability, T/C",[5],30.2%
same,"viability, T/C",[6],28.1%
same,"viability, T/C",[7],59.5%
same,"viability, T/C",[8],57.5%
same,"viability, T/C",[9],45.2%
same,"viability, T/C",[10],32.4%
same,"viability, T/C",[11],29%
same,"viability, T/C",[12],21.7%
same,"viability, T/C",[13],21.9%
same,"viability, T/C",[14],23.4%
same,"viability, T/C",[15],21.2%
same,"viability, T/C",[16],16.1%
same,"viability, T/C",[17],15.7%
same,"viability, T/C",[18],13.4%
same,"viability, T/C",[19],1.26%
same,"viability, T/C",[20],1.5%
same,"viability, T/C",[21],1.42%
same,"viability, T/C",[22],1.31%
same,"viability, T/C",[23],1.3%
same,"viability, T/C",[24],1.65%
same,"viability, T/C",[25],0.71%
same,"viability, T/C",[26],0.91%
same,"viability, T/C",[27],0.78%
same,"viability, T/C",[28],0.61%
same,"viability, T/C",[29],0.63%
same,"viability, T/C",[30],0.59%
same,"viability, T/C",[31],0.15%
same,"viability, T/C",[32],0.14%
same,"viability, T/C",[33],0.15%
same,"viability, T/C",[34],0.13%
same,"viability, T/C",[35],0.18%
same,"viability, T/C",[36],0.19%
